One data set concerns the target T1, HIV-1 gp120 (Human immunodeficiency virus type 1 group M subtype B, UniProt P35961).
T1 construct: Expression and Purification of Wild-Type gp120YU-2; made in house; host or cells: HEK 293F
The class given is binding. To be noted: for Dual receptor site (CD4 and 17b) inhibition of gp120, in words: SPR competition. How it is done: SPR competition binding assays were used to assess the structural elements required for cyclic hexapeptide binding to gp120. […] In an attempt to restore the lost contact, the length of the two linkers was changed (Linker 1 and Linker 2 in FIG. 12).
SPR experiments were performed on a Biacore 3000 optical biosensor (GE Healthcare). All experiments were carried out at 25° C. using standard PBS buffer pH=7.4 with 0.005% surfactant Tween. A CM5 sensor chip was derivatized by standard 1-ethyl-3-(3-dimethylaminopropyl) carbodiimide (EDC)/N-hydroxysuccinimide (NHS) chemistry, and coupling was done through ligand amine groups. Antibody 2B6R (α-human IL5R) was immobilized for negative control surfaces. For competition experiments, soluble four domain CD4 and 17b antibody were immobilized on the surface through standard EDC/NHS chemistry. For kinetic analyses, typically 2000-3000 RUs of protein reagents were immobilized on SPR chips, and analytes were passed over the surface at 50-100 μL/min. Surface regeneration was achieved by a 5 μL injection of 10 mM HCl solution at 100 μL/min. […] Regeneration of the surface was achieved by a single 10 second pulse of 1.3 M NaCl/35 mM NaOH and single 5-second pulse of 10 mM glycine, pH 1.5, for sCD4 and mAb 17b, respectively. All analyses were performed in triplicate.
The inhibition curve was converted into a calibration curve by the use of a fitting function. The fitting was done using the 4-parameter Equation (1) from BIAevaluation software,
The cyclic peptides of the invention were tested against HIV-1 gp120 by SPR competition assays as described elsewhere herein. A mixture of the cyclic peptide/gp120 solutions was passed over SPR chip immobilized with CD4 and 17b separately. The competition assay evaluated the ability of each peptide to inhibit the binding between gp120 and both soluble CD4 and 17b antibody, a surrogate for co-receptor.

The next data set has as its target S375W mutant of gp120 (Human immunodeficiency virus type 1 group M subtype B, UniProt P35961, S370W). Nature of the data set: SPR competition with gp120 mutant S375W. The format is binding, HIV-1.
The next data set addresses S375H mutant of gp120 (Human immunodeficiency virus type 1 group M subtype B, UniProt P35961, S370H). Nature of the data set: SPR competition with gp120 mutant S375H. The format is binding, HIV-1.
The test system of the next data set is HIV-1 Bal.01 pseudovirus. As to the kind of experiment: Inhibition of HIV-1 infection against Bal.01 (HOS.T4.R5 cells, luciferase). The format is cell-based.
In data set [1] the target is Chymotrypsin (bovine pancreas) (Bos taurus, UniProt P00766). Nature of the data set: In vitro proteolytic stability, chymotrypsin.
The target of data set [2] is T2, Trypsin (from bovine pancreas) (Bos taurus, UniProt P00760).
T2 sequence (P00760 24-246): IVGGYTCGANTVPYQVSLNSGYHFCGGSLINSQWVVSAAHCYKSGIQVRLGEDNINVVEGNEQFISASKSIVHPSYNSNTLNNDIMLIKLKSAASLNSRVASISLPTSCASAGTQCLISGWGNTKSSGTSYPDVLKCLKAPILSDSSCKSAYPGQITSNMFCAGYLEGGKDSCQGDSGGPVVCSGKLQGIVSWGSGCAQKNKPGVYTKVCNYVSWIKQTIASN
As to the kind of experiment: In vitro proteolytic stability, trypsin. To be noted: 5 h incubation, 37° C.

Another data set has as its system HIV-1 JR-FL pseudovirus. As to the kind of experiment: Inhibition of HIV-1 infection against JR-FL (HOS.T4.R5 cells, luciferase). The format is cell-based.
Data set [3] deals with HIV-1 subtype A, B and C isolates. The conditions noted are these: read-out: IC50 range, neutralization of viral infection; cited from earlier work.
A further data set relates to tissue explants model. The conditions noted are these: concentrations up to 100 μM; cited from earlier work.
Data set [4] concerns viruses pseudotyped with VSV-G. The conditions noted are these: cited from earlier work.
Another data set addresses monomeric gp120 (Human immunodeficiency virus type 1 group M subtype B, UniProt P35961). The conditions noted are these: read-out: KD, binding to monomeric gp120; cited from earlier work.

Entries after “also recorded” stand apart in the source; their conditions may differ. Positions of bridges follow the written chain, without caps; N, C: chain ends. Non-standard residues stand in square brackets, D forms with d. Residues, ends and D or L forms follow the SMILES beside them. Pro(cis-4-Trz(4-CH2CH2Ph)) = O=C(O)[C@@H]1C[C@H](n2cc(CCc3ccccc3)nn2)CN1

Consider `CC[C@H](C)[C@H](N)C(=O)N[C@H]1CCC(=O)NCCCC[C@@H](C(N)=O)NC(=O)[C@H](Cc2c[nH]c3ccccc23)NC(=O)[C@@H]2C[C@H](n3cc(CCc4ccccc4)nn3)CN2C(=O)[C@H]([C@@H](C)CC)NC(=O)[C@H](CC(N)=O)NC1=O` [AAR024, (3S,6S,15S,18S,21S,25S,26aS)-3-((1H-indol-3-yl)methyl)-18-(2-amino-2-oxoethyl)-15-((2S,3S)-2-amino-3-methylpentanamido)-21-((S)-sec-butyl)-1,4,12,16,19,22-hexaoxo-25-(4-phenethyl-1H-1,2,3-triazol-1-yl)hexacosahydropyrrolo[2,1-f][1,4,7,10,13,19]hexaazacyclotetracosine-6-carboxamide] (H-IENI[Pro(cis-4-Trz(4-CH2CH2Ph))]WK-NH2; lactam 2-7), for which, at HIV-1 gp120, the “fold more active than the linear analogue” value was > 40 fold; the “Dual receptor site (CD4 and 17b) inhibition of gp120, in words” value is “retained the dual receptor site inhibitory signature of linear PTs; also recorded: dual inhibitors”. Moreover, the “Activity against S375W mutant of gp120” value on S375W mutant of gp120 is “inactive”. In addition, at S375H mutant of gp120, the “Activity against S375H mutant of gp120” value is “inactive”.
Take `CC[C@H](C)[C@@H]1NC(=O)[C@H](CC(N)=O)NC(=O)[C@@H](N)CC(=O)NCCCC[C@@H](C(N)=O)NC(=O)[C@H](Cc2c[nH]c3ccccc23)NC(=O)[C@@H]2C[C@H](n3cc(CCc4ccccc4)nn3)CN2C1=O` [AAR029, (3S,6S,14S,17S,20S,24S,25aS)-3-((1H-indol-3-yl)methyl)-14-amino-17-(2-amino-2-oxoethyl)-20-((S)-sec-butyl)-1,4,12,15,18,21-hexaoxo-24-(4-phenethyl-1H-1,2,3-triazol-1-yl)tetracosahydro-1H-pyrrolo[2,1-f][1,4,7,10,13,18]hexaazacyclotricosine-6-carboxamide] (H-DNI[Pro(cis-4-Trz(4-CH2CH2Ph))]WK-NH2; lactam 1-6): at HIV-1 gp120, the “fold enhanced activity vs AAR029b” value is listed as ~2 fold; the “fold more active than the linear analogue” value was > 200 fold; the “Dual receptor site (CD4 and 17b) inhibition of gp120, in words” value is reported as “dual inhibitors”. The “Infection inhibition against Bal.01, in words” value with HIV-1 Bal.01 pseudovirus is given as “inhibiting activity”. Moreover, the “State after chymotrypsin treatment, in words” value in [1] (30 min incubation, 37° C.) is listed as “almost unchanged”. Also, the “Resistance to chymotrypsin, in words” value in data set [1] (5 h incubation, 37° C.) was “completely resistant”. For the same molecule, in data set [1] (40 h incubation, HPLC and ESI-MS), the “Intactness after chymotrypsin digestion, in words” value is given as “remained intact”. Moreover, the “Time the peptide remained stable” value in data set [1] (in the presence of trypsin and chymotrypsin, 37° C., pH 8.2) was > 40 h. In addition, in [2], the “Resistance to trypsin, in words” value is “completely resistant”. In addition, the “Infection inhibition against JR-FL, in words” value with HIV-1 JR-FL pseudovirus is given as “inhibiting activity”.
What is called IC50 is the point on the concentration scale where inhibition reaches its midpoint. Usually Kd stands for the constant that tells how readily two partners part at equilibrium. For “(S)-4-((S)-2-((S)-2-((2S,4S)-1-(L-arginyl-L-isoleucyl-L-asparaginyl-L-asparaginyl-L-alloisoleucyl)-4-(4-ferrocenyl-1H-1,2,3-triazol-1-yl)pyrrolidine-2-carboxamido)-3-(1H-indol-3-yl)propanamido)-3-hydroxypropanamido)-5-(((S)-1-(((S)-1-(((S)-1-amino-4-(methylthio)-1-oxobutan-2-yl)amino)-4-(methylthio)-1-oxobutan-2-yl)amino)-1-oxopropan-2-yl)amino)-5-oxopentanoic acid [HNG156]”, in data set [3], the IC50 is 0.08 to 62.5 µM. In addition, the “Toxicity in tissue explants model” value with tissue explants model is given as “no detectable toxicity”. The “Neutralization of VSV-G pseudotyped viruses, in words” value in data set [4] is listed as “not”. At monomeric gp120, the Kd is 0.007 µM.

(Values after patent US10251931B2, “Cyclic peptides and methods using same” (priority 2014, dated 2019).)
